Data from patent publication US20180207228A1, “PEPTIDE COMBINATIONS AND USES THEREOF FOR TREATING GRASS ALLERGY” (ALK-Abelló A/S, priority 2015, published 2018).
Where no end group is shown, it is not given here.

Columns and labels:
[1] = system: release of IL-5 upon T cell activation; test: Fluorospot assay, IL-5 release (DK1-TCL01, US1-TCL01); assay type: cell-based, human; conditions: head prints TCL-02 DK1; text: 25 TCL-01 DK1 lines
How it was run: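 Grass-allergic donors' CD8-depleted PBMCs were expanded 14 days with natural grass allergens plus IL-2 to give TCL01 lines. These were incubated 20 h at 37° C with single peptides or peptide mixes at 2 μg/ml, and spot-forming cells were counted. Hit: SI≥2, p≤0.05, Poisson ≤0.05, ≥20 SFC/10^6 cells.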

[2] = Bio-stability in 25% human serum (T½, degradation pattern by UHPLC and MS); assay type: in vitro ADME
Description: The supernatant was analyzed by UHPLC-UV/VIS and the peak-height/peak-area of the original peptide was determined at each time point. T½ of the original peptide was estimated by plotting Ln (peak-area) as a function of time. […] Therefore, the degradation pattern of each peptide was additionally studied. Extra peaks compared to the peak of the original peptide in the chromatogram were notified as potential degradation products. To assess the degradation pattern of each peptide and identify degradation products, the test samples were also investigated by mass spectroscopy (MS). Some peptides, for example, may be prone to cleavage by endopeptidases resulting in short peptide fragments unfit for binding to the HLA binding site, whereas other peptides may be more prone to cleavage by exopeptidases which may cleave one or more amino acid residues from the N or C-terminal end of the peptide resulting in a conserved HLA binding. […] Therefore, it is important to look at both the MS data and functional data to estimate the extent and effect of the degradation.

[3] = system: grass pollen allergic donor derived T cell lines; test: Dose response titration in T cell proliferation assay; assay type: cell-based, human; conditions: single peptides, FIG. 21
Description: The dose-response relationship was tested by measuring the percentage of donor response (i.e. the percentage of donor coverage) in concentrations of 2.0, 0.1, 0.005 and 0.00025 μg/ml for the peptide combinations and in concentrations of 2.0, 0.2, 0.02 and 0.002 μg/ml for single peptides. The donor response was determined using T cell proliferation data as described in Example 3.
Relative magnitude value for a peptide or a peptide combination was calculated as percentage of highest T cell response to an allergen or a mix, by the same donor. In this way, allergen or peptide combination with highest magnitude of T cell response gets a value of 100 and T cell response magnitude of remaining peptides/peptide combinations are normalized or calculated relative to 100, for example Relative magnitude=100*(T cell response magnitude of peptide or combination/Highest T cell response in a donor). Relative magnitude were calculated mainly on Phl p 1. For donors non reactive to Phl p 1, Phl p 5 was used as reference
The donors were selected by seeking to maximize the HLA class II diversity in the donor cohort.
For peptide combinations, two set-ups were used:
A) Concentrations of 2.0, 0.1, 0.005 and 0.00025 μg/ml were tested on a set of T cell lines derived from 9 grass pollen allergic donors (same experiment as the data shown in FIG. 7b.).
B) Concentrations of 2.0, 0.066, 0.0022 and 0.00007 μg/ml were used on a set of T cell lines derived from 18 grass pollen allergic donors (same set as the donors used for testing of single peptides as described above).
Relative magnitude value for a peptide or a peptide combination was calculated as percentage of highest T cell response to an allergen or a mix, by the same donor. In this way, allergen or peptide combination with highest magnitude of T cell response gets a value of 100 and T cell response magnitude of remaining peptides/peptide combinations are normalized or calculated relative to 100, for example Relative magnitude=100*(T cell response magnitude of peptide or combination/Highest T cell response in a donor). […]

For PANDKFTVFEAAFNNAIKAS-OH [compound 70], the “IL-5-Fluorospotr % donor coverage (TCL-02 DK1)” value [1] was 16.00%.
For AYESYKFIPALEAAVKQAYA-OH [peptide 285], the “<−3aa (%)” value ([2]; degradation details at 60 min) was 0%, the “Sum full length or −1aa to −3aa” value ([2]; degradation details at 60 min) was 100% and the “−1aa to −3aa (%)” value ([2]; degradation details at 60 min) was 34%. For the same substance, the half-life ([2]; male, 37° C.) was 1.37 h and the remaining at 1 h ([2]; male, degradation details at 60 min, read-out: Full length (%)) was 66%.
In the case of VATLSEALRIIAGTLEVHAV-OH [compound 67], the “IL-5-Fluorospotr % donor coverage (TCL-02 DK1)” value [1] is reported as 32.00%.
In the case of STGGAYESYKFIPALEAAVK-OH [compound 71], the “IL-5-Fluorospotr % donor coverage (TCL-02 DK1)” value [1] is reported as 32.00% and the “average relative magnitude calculated over all donors” value [3] is reported as “high”.
